Laboratory results reported in patent US8852917B2, “Thuricin CD, an antimicrobial for specifically targeting Clostridium difficile” (University College Cork, priority 2007, dated 2014).
Converted amounts (≈) assume the structure as drawn. “Also recorded” adds a separate entry of the source. Like-named read-outs stand apart in the source and are kept apart here.

What was measured:
[1] = test system: C. difficile ribotypes 001, 106 and 027; assay: Determination of minimum inhibitory concentrations; type: cell-based
[2] = test system: C. difficile; assay: Lysis of C. difficile by thuricin CD; type: cell-based
Method: The lytic effect of thuricin CD on C. difficile was carried out as described by Rea et at (2007).

[3] = Stability in simulated gastric, ileal and colon juice; type: in vitro ADME; conditions: 37° C., 1 mg/ml, WDA
Method: Effect of simulated gastric, ileal and colon juice on stability of thuricin CD C. difficile 64539 was grown overnight and inoculated at 1.25% into Reinforced Clostridium Agar (RCA). Simulated gastric, ileal and colon juice were prepared as outlined by Breumer et al (1992). Purified thuricin CD was made up to 100 mg/ml in 70% IPA. Seventy μl (1 mg/ml final concentration) of thuricin was added to 7000 μl of porcine gastric and ileum juice and incubated at 37° C. At intervals samples were taken and activity was measured with the WDA using C. difficile seeded plates. The samples were also assayed for the presence of the Trn-α and Trn-β peptides using MALDI-TOF MS

[4] = test system: Bifidobacteria; assay: Model faecal fermentation; type: cell-based, Bifidobacterium sp.; conditions: up to 16 hr incubation
Method: (§1) Faecal growth medium was prepared as described by Fooks and Gibson (2003) with minor modifications as follows. The ingredients were made up to 800 ml, the pH adjusted to 6.8. One hundred and sixty ml was added to each fermentation vessel and autoclaved at 121° C. for 15 min. Prior to inoculation the faecal medium was sparged with O2-free nitrogen for ˜1 h. A 20% faecal slurry was made from a fresh faecal sample in 50 mM phosphate buffer containing 0.05% cystein which has been previously boiled and cooled just prior to use and mixed using a stomacher for no longer than 1 min. Two fermentor vessels were inoculated with 35 ml of the slurry preparation and 2 ml of the overnight culture of C. difficile. To the test vessel 1 ml of 100 mg/ml thuricin was added at 0, 8 and 16 h incubation and both vessels sampled at 0, 4, 8, 12, 16, 20 and 24 h for both microbiological analyses of C. difficile and Bifidobacteria sp. Samples were also taken for analysis of thuricin activity using WDA and MALDI-TOF MS.
(§2) C. difficile was enumerated on CCEY agar (LabM) and Bifidobacterium sp. on modified MRS agar containing 0.05% cystein and 50 mg mupirocin/1 after 48 h and 72 h at 37° C. incubation respectively.

[5] = Stability in ex vivo porcine gastric and ileal juice; type: in vitro ADME; conditions: 37° C., 1 mg/ml, WDA
Method: Effect of ex vivo porcine gastric and ileal juice on the stability of the thuricin CD C. difficile 64539 was grown overnight and inoculated at 1.25% into Reinforced Clostridium Agar (RCA). Purified Thuricin CD was prepared as described above. Seven ml of porcine ileal and gastric juice was centrifuged for 15 min at 12,000 rpm to remove debris. Seventy μl (1 mg/ml) of thuricin was added to 7000 μl of porcine gastric and ileum juice and incubated at 37° C. At intervals samples were taken and activity was measured using the WDA and checked for the presence of the Trn-α and Trn-β peptides using MALDI-TOF MS.

[6] = test system: C. difficile DPC 6537 (PCR ribotype 001); assay: Model faecal fermentation; type: cell-based; conditions: 500 μg thuricin added at 0, 8, and 16 hr; spiked with 10^6 cfu C. difficile ribotype 001/ml; after 16 hr incubation
Method: C. difficile DPC 6537 (PCR Ribot e 001) was taken from −80° C. stock and streaked on Fastidious Anaerobic Agar and incubated anaerobically at 37° C. On the night before the experiment ˜1 colony was inoculated into 10 ml of RCM which has been previously boiled and cooled and incubated anaerobically at 37° C.
as §1, with “To the test vessel 1 ml of 100 mg/ml thuricin was added at 0, 8 and 16 h incubation and both vessels sampled at 0, 4, 8, 12, 16, 20 and 24 h for both microbiological analyses of C. difficile and Bifidobacteria sp.” left out
as §2

[7] = Heat sensitivity; type: physicochemical
Method: (§3) Activity over a range of pH was determined in CFS by adjusting pH from 2 to 9 using either 0.5M HCl or 1M NaOH. The effect of acid or base on the target organism was determined using uninoculated broth medium adjusted through the pH range. Activity was determined using WDA assay using C. difficile ATCC 43593 as the target strain. Heat sensitivity was determined by heating the CFS for 15 min at a range of temperatures from 37° C. to 100° C.; the control was incubated at 37° C. Activity was determined using WDA with C. difficile ATCC 43593 as the target organism.

[8] = test system: Lb. casei 338; type: cell-based
[9] = Activity over a range of pH; type: physicochemical
Method: as §3

[10] = Sensitivity to enzymatic degradation; type: in vitro ADME; conditions: FIG. 1; Proteinase K (6.5 mg/ml) applied to the edge of the well
Method: The cell free supernatant was tested for sensitivity to the following enzymes at a concentration of 25 mg/ml: pepsin, trypsin, peptidase, α-chymotrypsin type V111, α-chymotrypsin type 11 and proteinase K. All enzymes were purchased from Sigma. Cell free supernatants were incubated with the enzymes for 1 h at 37° C. Activity post enzyme treatment was determined using the well diffusion method using C. difficile ATCC 43593 as the target organism. Sensitivity of the antimicrobial to Proteinase K was also determined by applying 5 μl of Proteinase K (6.5 mg/ml) to the edge of the well containing the sample.

[11] = test system: L. monocytogenes NCTC 5348; type: cell-based
[12] = test system: bifidobacteria strains; type: cell-based
[13] = test system: C. difficile R027 NAP1; assay: Kill curves; type: cell-based
Method: The effect of thuricin against C. difficile R027 NAP1, L. monocytogenes NCTC 5348, Lb. casei 338 and B. lactis Bb12 was determined in Reinforced Clostridium Medium (RCM Merck), Brain Heart Infusion broth (Merck), MRS (de Mann-Rogosa-Sharpe) medium (Difco) and MRS containing 0.05% cystein respectively. Three independent cultures were prepared for each strain and grown overnight at 37° C. Three replicate one ml volumes of sterile double strength broth medium was prepared for each strain and inoculated with the test organisms to give initial cell numbers of 10^5-10^6/ml. Thuricin was added to give the required concentration and the volume made up to 2 ml with sterile distilled water. The bacteriocin was omitted from the control and volume substituted with sterile water. Samples were removed at intervals, serially diluted and plated on RCA, BHI agar, MRS agar or MRS agar containing 0.05% cystein depending on the strain. Plates were counted after 24 h (L. monocytogenes), or 48 h (C. difficile, Lb. casei 338 and B. lactis Bb12) incubation at 37° C.

[14] = test system: Gram negative organisms; type: cell-based; conditions: WDA
Method: B. thuringiensis DPC 6431 was grown aerobically from stock for ˜6 h in BHI broth and sub-cultured into fresh BHI at 0.1% for 18 h in BHI. Following growth, the culture was centrifuged twice at 8200 g for 10 min. Activity was determined using the well diffusion assay (WDA) as described by Ryan et al., (1996). Activity against a range of target organisms was determined by WDA. Cultures were grown over-night in various broth media and temperatures as outlined in Table 1. Twenty ml of the appropriate agar medium was inoculated with 100 μl of target organism and, once solidified, 50 μl of the cell free supernatant (CFS) of B. thuringiensis DPC 6431 was added to a well made in the agar. Plates were incubated under conditions appropriate for the various target organisms as outlined in Table 1. Zones of inhibition (mm) were measured and relative sensitivity determined by measuring the diameter of the zone. Zones of size ≦9 mm were designated +; of 10-15 mm were designated ++; of 16-21 mm were designated +++; of ≧22 mm were designated ++++;

[15] = test system: B. lactis Bb12; type: cell-based
[16] = test system: Lactobacillus and Bifidobacterium populations; conditions: simple faecal fermentations; concentrations required to kill C. difficile; cited from earlier work
[17] = C. difficile ribotype 001, 16 h at 37° C. anaerobically, read-out: MIC
[18] = C. difficile ribotype 106, 16 h at 37° C. anaerobically, read-out: MIC

## Cc1ncc([N+](=O)[O-])n1CCO [Metronidazole, metronidazole]
[1]; Clostridioides difficile, 16 h, C. difficile ribotype 001, 16 h at 37° C. anaerobically, read-out: MIC
  MIC: 3.12 µM (≈ 0.535 µg/mL)
[1]; Clostridioides difficile, 16 h, C. difficile ribotype 027, 16 h at 37° C. anaerobically, read-out: MIC
  MIC: 3.12 µM (≈ 0.535 µg/mL)
[1]; Clostridioides difficile, 16 h, C. difficile ribotype 106, 16 h at 37° C. anaerobically, read-out: MIC
  MIC: 1.56 µM (≈ 0.267 µg/mL)

## Thuricin CD
[2]
  Effect on OD600 nm of logarithmically growing C. difficile: gradual reduction of OD600 nm
[2]; logarithmically growing C. difficile
  Acetate kinase in the growth medium (lysis): release of the intracellular enzyme acetate kinase
[3]; 2 hours
  Activity after incubation in simulated gastric juice: no reduction of activity
[3]; 4 hours
  Activity after incubation in simulated ileal juice: no reduction of activity
[3]; 9 hours
  Activity after incubation in simulated colon juice: no reduction of activity
[4]
  Effect on numbers of Bifidobacteria relative to control: did not affect
[5]; 2 hr
  Activity after incubation in ex vivo porcine gastric juice: no reduction in activity
[5]; 5 hr
  Activity after incubation in ex vivo porcine ileal juice: no reduction in activity
[6]
  Reduction of C. difficile compared with the control: over 1000 fold
[7]
  Activity after heating at 90° C.: reduction of activity
  Activity after heating at 100° C.: loss of activity
  Temperature up to which heat stable / activity retained: up to 95 °C
  Temperature up to which heat-stable: about 85 ° Centigrade
[8]
  Effect on viability of Lb. casei 338: no effect; also recorded: did not affect
[1]; [17]
  MIC: 0.097 µM
[1]; C. difficile ribotype 027, 16 h at 37° C. anaerobically, read-out: MIC
  MIC: 0.012 µM
[1]; [18]
  MIC: 0.125 µM
[9]
  pH range in which active: 2-10
[10]
  Activity on treatment with Proteinase K: lost
[11]
  Reduction of cell numbers of L. monocytogenes: 1.5 log cycles
[12]
  Sensitivity of bifidobacteria strains tested: No bifidobacteria strains tested were sensitive
[13]; 5 μM
  Time within which approximately 5×10^6 CFU of C. difficile per ml are killed: ≤ 60 minutes
[13]; 200 AU thuricin/ml, C. difficile PCR ribotype 027
  Time to reduce viable cells from ˜10^6/ml to zero: ≤ 2 h
[13]; 200 AU/ml
  Time within which approximately 5×10^6 CFU of C. difficile per ml are killed: ≤ 180 minutes
  Time within which ˜5×10^6 cfu of C. difficile per ml were killed: ≤ 180 min
[14]
  Activity against Gram negative organisms tested: no activity
[15]
  Effect on viability of B. lactis BB12: no effect; also recorded: did not affect

## CN[C@H](CC(C)C)C(=O)N[C@H]1C(=O)N[C@@H](CC(N)=O)C(=O)N[C@H]2C(=O)N[C@H]3C(=O)N[C@H](C(=O)N[C@H](C(=O)O)c4cc(O)cc(O)c4-c4cc3ccc4O)[C@H](O)c3ccc(c(Cl)c3)Oc3cc2cc(c3O[C@@H]2O[C@H](CO)[C@@H](O)[C@H](O)[C@H]2O[C@H]2C[C@](C)(N)[C@H](O)[C@H](C)O2)Oc2ccc(cc2Cl)[C@H]1O [Vancomycin, vancomycin]
[1]; [17]
  MIC: 0.39 µM (≈ 0.565 µg/mL)
[1]; [18]
  MIC: 0.39 µM (≈ 0.565 µg/mL)
[1]; Clostridioides difficile, 16 h
  MIC: 0.39 µM (≈ 0.565 µg/mL)

## lacticin 3147
[16]
  Effect on Lactobacillus and Bifidobacterium populations: 3 log cycles
